Patent US12350259B2, “Methods of treating migraine” (Allergan Pharmaceuticals International Limited, priority 2021, dated 2025)
Where two headings read alike, the source gives them in different places.

Columns and labels:
MRP3 = MRP3 (Homo sapiens, UniProt O15438); assay: Transporter inhibition; type: in vitro ADME; details: clinically relevant concentrations
[1] = Atogepant-esomeprazole drug interaction study: atogepant PK; type: in vivo, human; details: for Tmax: human, plasma, oral
Experimental: A phase 1, open-label, 2-intervention, single-sequence, nonrandomized, crossover, drug-drug interaction study was conducted to evaluate the effects of multiple-dose esomeprazole magnesium 40 mg on pharmacokinetics (PK) and safety of co-administered single-dose atogepant 60 mg in healthy adults.
In this study, healthy adult participants received single-dose oral atogepant 60 mg on day 1, followed by once-daily esomeprazole 40 mg on days 7-13, co-administered with single-dose atogepant on day 12. Samples for atogepant PK analysis were collected on days 1 and 12. PK parameters calculated from atogepant plasma concentrations included peak plasma concentration (Cmax); time to Cmax (tmax); area under plasma concentration-time curve from time 0 to […] (AUC0-t) and from time 0 to infinity (AUC0-∞). PK parameters of atogepant alone vs. co-administered with esomeprazole were compared using a mixed-effects model. Statistical significance was achieved if 90% confidence intervals (CIs) for geometric least squares mean ratios (GMRs) of PK parameter values for atogepant co-administered with esomeprazole to atogepant administered alone were within 80%-125%.

CYP1A2 = assay: CYP induction; type: in vitro ADME; details: clinically relevant concentrations
CYP2C8 = CYP2C8 (Homo sapiens, UniProt P10632); assay: In vitro CYP inhibition; type: in vitro ADME; details: clinically relevant concentrations
plasma protein = assay: Plasma protein binding in human plasma; type: in vitro ADME; details: range of 0.1 to 10 μM
[2] = Plasma protein binding in human plasma; type: in vitro ADME; details: human plasma
OAT1 = OAT1 (Homo sapiens, UniProt Q4U2R8); assay: Transporter inhibition; type: in vitro ADME; details: clinically relevant concentrations
OATP1B1 [3] = target: T1, OATP1B1 (Homo sapiens, UniProt Q9Y6L6); assay: Transporter inhibition; type: in vitro ADME
OATP1B1 [4] = target: T1, OATP1B1; assay: Transporter substrate; type: in vitro ADME
[5] = test system: patients with episodic migraine; assay: Study 1 (NCT03777059): preventive treatment of episodic migraine, efficacy; type: in vivo, human
Experimental: The studies enrolled patients with at least a 1-year history of migraine with or without aura, according to the International Classification of Headache Disorders (ICHD-3) diagnostic criteria. In Study 1 (NCT03777059), 910 patients were randomized 1:1:1:1 to receive atogepant 10 mg (N=222), atogepant 30 mg (N=230), atogepant 60 mg (N=235), or placebo (N=223), once daily for 12 weeks. In Study 2 (NCT02848326), 652 patients were randomized 1:2:2:2 to receive atogepant 10 mg (N=94), atogepant 30 mg (N=185), atogepant 60 mg (N=187), or placebo (N=186), once daily for 12 weeks. In both studies, patients were allowed to use acute headache treatments (i.e., triptans, ergotamine derivatives, NSAIDs, acetaminophen, and opioids) as needed. The use of a concomitant medication that acts on the CGRP pathway was not permitted for either acute or preventive treatment of migraine. The studies excluded patients with myocardial infarction, stroke, or transient ischemic attacks within six months prior to screening. The primary efficacy endpoint was the change from baseline in mean monthly migraine days (MMD) across the 12-week treatment period. Secondary endpoints included the change from baseline in mean monthly headache days, the change from baseline in mean monthly acute medication use days, the proportion of patients achieving at least a 50% reduction from baseline in mean MMD (3-month average), the change from baseline in mean monthly Activity Impairment in Migraine-Diary (AIM-D) Performance of Daily Activities (PDA) domain scores, the change from baseline in mean monthly AIM-D Physical Impairment (PI) domain scores, across the 12 week treatment period, and the change from baseline at Week 12 for Migraine Specific Quality of Life Questionnaire version 2.1 (MSQ v2.1) Role Function-Restrictive (RFR) domain scores. The AIM-D evaluates difficulty with performance of daily activities (PDA domain) and physical impairment (PI domain) due to migraine, with scores ranging from 0 to 100. Higher scores indicate greater impact of migraine, and reductions from baseline indicate improvement. The MSQ v2.1 Role Function-Restrictive (RFR) domain score assesses how often migraine impacts function related to daily social and work-related activities over the past 4 weeks, with scores ranging from 0 to 100. Higher scores indicate lesser impact of migraine on daily activities, and increases from baseline indicate improvement.

[6] = Study 1, atogepant 10 mg once daily
[7] = Study 1, atogepant 30 mg once daily
[8] = Study 1, atogepant 60 mg once daily

T1 sequence (Q9Y6L6 whole entry): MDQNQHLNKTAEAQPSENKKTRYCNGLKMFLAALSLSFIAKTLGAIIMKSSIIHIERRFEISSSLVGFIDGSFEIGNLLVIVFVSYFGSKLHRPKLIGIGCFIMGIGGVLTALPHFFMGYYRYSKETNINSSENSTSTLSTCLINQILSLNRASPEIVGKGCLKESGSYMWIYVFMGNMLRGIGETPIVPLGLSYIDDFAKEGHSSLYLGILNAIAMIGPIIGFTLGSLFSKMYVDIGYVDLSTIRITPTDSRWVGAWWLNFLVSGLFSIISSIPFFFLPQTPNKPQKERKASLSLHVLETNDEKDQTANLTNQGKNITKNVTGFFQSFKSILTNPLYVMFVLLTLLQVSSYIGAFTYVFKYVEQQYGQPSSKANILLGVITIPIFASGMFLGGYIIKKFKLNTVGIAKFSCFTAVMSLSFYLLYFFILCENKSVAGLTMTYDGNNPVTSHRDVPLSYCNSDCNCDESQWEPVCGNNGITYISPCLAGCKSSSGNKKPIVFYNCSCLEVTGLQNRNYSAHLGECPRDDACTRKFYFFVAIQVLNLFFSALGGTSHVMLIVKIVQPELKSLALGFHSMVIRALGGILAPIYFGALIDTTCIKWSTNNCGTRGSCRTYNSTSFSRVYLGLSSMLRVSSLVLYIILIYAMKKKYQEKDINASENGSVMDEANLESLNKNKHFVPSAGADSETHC
Chain of MRP3 (O15438 whole entry): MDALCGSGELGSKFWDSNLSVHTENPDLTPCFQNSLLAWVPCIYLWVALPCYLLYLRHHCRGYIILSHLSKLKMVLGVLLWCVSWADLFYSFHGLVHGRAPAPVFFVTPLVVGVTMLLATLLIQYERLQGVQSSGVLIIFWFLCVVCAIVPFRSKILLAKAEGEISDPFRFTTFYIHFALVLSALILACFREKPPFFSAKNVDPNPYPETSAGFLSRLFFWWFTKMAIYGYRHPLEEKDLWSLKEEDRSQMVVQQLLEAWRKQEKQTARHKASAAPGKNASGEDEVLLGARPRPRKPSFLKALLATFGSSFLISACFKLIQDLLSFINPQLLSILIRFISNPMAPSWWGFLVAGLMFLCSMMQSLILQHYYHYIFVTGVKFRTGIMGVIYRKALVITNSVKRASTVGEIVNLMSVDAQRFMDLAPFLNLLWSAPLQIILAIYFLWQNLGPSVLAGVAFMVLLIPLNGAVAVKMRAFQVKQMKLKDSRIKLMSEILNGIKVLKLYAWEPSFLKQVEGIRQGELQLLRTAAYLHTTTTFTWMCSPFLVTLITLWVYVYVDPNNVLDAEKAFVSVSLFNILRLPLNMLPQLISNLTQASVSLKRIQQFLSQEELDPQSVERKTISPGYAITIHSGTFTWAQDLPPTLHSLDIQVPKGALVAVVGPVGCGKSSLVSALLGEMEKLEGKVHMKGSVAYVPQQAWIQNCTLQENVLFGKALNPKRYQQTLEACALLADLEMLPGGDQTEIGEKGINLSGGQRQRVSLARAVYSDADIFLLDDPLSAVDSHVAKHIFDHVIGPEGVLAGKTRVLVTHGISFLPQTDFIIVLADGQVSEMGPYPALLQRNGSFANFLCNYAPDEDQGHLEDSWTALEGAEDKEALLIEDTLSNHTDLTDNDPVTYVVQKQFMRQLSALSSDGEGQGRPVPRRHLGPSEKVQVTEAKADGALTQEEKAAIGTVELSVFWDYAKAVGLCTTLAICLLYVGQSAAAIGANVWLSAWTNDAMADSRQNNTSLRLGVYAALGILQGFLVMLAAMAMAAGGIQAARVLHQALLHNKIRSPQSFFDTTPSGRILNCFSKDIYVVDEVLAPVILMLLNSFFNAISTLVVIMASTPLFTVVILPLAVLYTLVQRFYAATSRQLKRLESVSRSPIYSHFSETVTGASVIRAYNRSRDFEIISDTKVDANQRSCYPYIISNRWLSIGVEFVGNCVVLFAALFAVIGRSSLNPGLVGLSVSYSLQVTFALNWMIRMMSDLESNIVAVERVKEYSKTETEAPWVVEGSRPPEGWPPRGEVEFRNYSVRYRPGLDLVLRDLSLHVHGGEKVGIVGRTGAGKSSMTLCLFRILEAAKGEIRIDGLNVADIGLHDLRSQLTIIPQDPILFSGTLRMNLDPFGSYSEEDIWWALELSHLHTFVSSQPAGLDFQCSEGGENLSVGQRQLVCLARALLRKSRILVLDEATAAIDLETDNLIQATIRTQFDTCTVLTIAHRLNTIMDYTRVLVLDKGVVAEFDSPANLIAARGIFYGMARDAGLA
Chain of OAT1 (Q4U2R8 whole entry): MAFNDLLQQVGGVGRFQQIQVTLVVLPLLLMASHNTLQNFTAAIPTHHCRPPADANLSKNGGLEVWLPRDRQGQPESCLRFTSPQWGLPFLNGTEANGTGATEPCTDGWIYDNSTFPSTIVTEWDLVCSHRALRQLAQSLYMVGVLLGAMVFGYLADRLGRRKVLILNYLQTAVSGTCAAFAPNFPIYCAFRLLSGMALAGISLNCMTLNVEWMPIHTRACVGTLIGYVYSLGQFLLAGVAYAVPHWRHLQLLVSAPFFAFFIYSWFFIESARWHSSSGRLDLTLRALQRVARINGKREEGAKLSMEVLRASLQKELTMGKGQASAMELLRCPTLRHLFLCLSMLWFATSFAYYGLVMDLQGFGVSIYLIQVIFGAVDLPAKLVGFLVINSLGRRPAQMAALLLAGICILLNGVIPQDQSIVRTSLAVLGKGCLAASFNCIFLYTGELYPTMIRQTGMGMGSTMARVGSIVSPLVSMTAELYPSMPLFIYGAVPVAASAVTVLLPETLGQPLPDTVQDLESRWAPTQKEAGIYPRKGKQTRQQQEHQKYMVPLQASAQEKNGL
Chain of CYP2C8 (P10632 whole entry): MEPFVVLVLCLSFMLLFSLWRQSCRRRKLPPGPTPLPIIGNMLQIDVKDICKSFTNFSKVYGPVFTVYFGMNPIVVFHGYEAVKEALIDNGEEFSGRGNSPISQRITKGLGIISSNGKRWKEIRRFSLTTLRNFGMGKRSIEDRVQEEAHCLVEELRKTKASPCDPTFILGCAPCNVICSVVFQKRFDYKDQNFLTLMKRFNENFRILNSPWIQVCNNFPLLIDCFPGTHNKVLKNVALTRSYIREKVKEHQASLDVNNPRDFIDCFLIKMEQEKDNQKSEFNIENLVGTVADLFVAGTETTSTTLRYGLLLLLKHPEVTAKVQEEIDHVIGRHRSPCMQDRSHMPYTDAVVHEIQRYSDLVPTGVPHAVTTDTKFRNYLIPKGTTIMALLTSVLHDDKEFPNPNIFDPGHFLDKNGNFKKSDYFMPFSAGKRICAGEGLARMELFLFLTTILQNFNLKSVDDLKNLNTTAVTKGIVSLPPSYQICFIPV

Question: For `C[C@@H]1[C@H](c2c(F)ccc(F)c2F)C[C@H](NC(=O)c2cnc3c(c2)C[C@@]2(C3)C(=O)Nc3ncccc32)C(=O)N1CC(F)(F)F` [atogepant, (3′S)-N-[(3S,5S,6R)-6-methyl-2-oxo-1-(2,2,2-trifluoroethyl)-5-(2,3,6-trifluorophenyl)piperidin-3-yl]-2′-oxo-1′,2′,5,7-tetrahydrospiro[cyclopenta[b]pyridine-6,3′-pyrrolo[2,3-b]pyridine]-3-carboxamide], which “inhibition of MRP3” value (MRP3) is on record?
Answer: not an inhibitor

Question: What about the “reduced Cmax” value ([1]; coadministration with esomeprazole) of the same molecule?
Answer: 23%

Question: What about the Tmax ([1]; 60 mg, atogepant 60 mg alone, read-out: median plasma atogepant tmax) of the same molecule?
Answer: 1.51 h

Question: And the Tmax ([1]; atogepant 60 mg coadministered with esomeprazole 40 mg, read-out: median plasma atogepant tmax)?
Answer: 3 h

Question: What about the Tmax ([1]; coadministration with esomeprazole vs alone, read-out: delay of median tmax) of the same molecule?
Answer: 1.5 h

Question: And the “induction of CYP1A2” value (CYP1A2)?
Answer: not an inducer

Question: What about the “inhibition of CYP2C8” value (CYP2C8) of the same molecule?
Answer: not an inhibitor

Question: What about the “concentration dependence of plasma protein binding” value (plasma protein) of the same molecule?
Answer: not concentration-dependent

Question: And the fraction unbound [2]?
Answer: ~0.047

Question: And the “inhibition of OAT1” value (OAT1)?
Answer: not an inhibitor

Question: And the “inhibition of OATP1B1” value (OATP1B1 [3])?
Answer: weak inhibitor

Question: What about the “substrate of OATP1B1” value (OATP1B1 [4]) of the same molecule?
Answer: substrate

Question: What about the “AIM-D PDA Domain across 12 weeks, difference from placebo” value [5, 6] of the same molecule?
Answer: −1.2

Question: And the “AIM-D PDA Domain across 12 weeks, mean change from baseline” value [5, 6]?
Answer: −7.3

Question: What about the “AIM-D PI Domain across 12 weeks, difference from placebo” value [5, 6] of the same molecule?
Answer: −1.1

Question: And the “AIM-D PI Domain across 12 weeks, mean change from baseline” value [5, 6]?
Answer: −5.1

Question: What about the “MSQ v2.1 RFR Domain at week 12, difference from placebo” value [5, 6] of the same molecule?
Answer: 9.9

Question: And the “MSQ v2.1 RFR Domain at week 12, mean change from baseline” value [5, 6]?
Answer: 30.4

Question: And the “Monthly Acute Medication Use Days across 12 weeks, difference from placebo” value [5, 6]?
Answer: −1.3

Question: And the “Monthly Acute Medication Use Days across 12 weeks, mean change from baseline” value [5, 6]?
Answer: −3.7

Question: What about the “Monthly Headache Days across 12 weeks, difference from placebo” value [5, 6] of the same molecule?
Answer: −1.4

Question: And the “Monthly Headache Days across 12 weeks, mean change from baseline” value [5, 6]?
Answer: −3.9

Question: What about the “Monthly Migraine Days (MMD) across 12 weeks, difference from placebo” value (“Monthly Migraine Days … difference from placebo” for short) [5, 6] of the same molecule?
Answer: −1.2

Question: And the “Monthly Migraine Days (MMD) across 12 weeks, mean change from baseline” value [5, 6]?
Answer: −3.7

Question: What about the “≥50% MMD Responders across 12 weeks, % Responders” value [5, 6] of the same molecule?
Answer: 56%

Question: What about the “≥50% MMD Responders across 12 weeks, difference from placebo” value [5, 6] of the same molecule?
Answer: 27%

Question: And the “AIM-D PDA Domain across 12 weeks, difference from placebo” value [5, 7]?
Answer: −2.5

Question: What about the “AIM-D PDA Domain across 12 weeks, mean change from baseline” value [5, 7] of the same molecule?
Answer: −8.6

Question: What about the “AIM-D PI Domain across 12 weeks, difference from placebo” value [5, 7] of the same molecule?
Answer: −2.0

Question: And the “AIM-D PI Domain across 12 weeks, mean change from baseline” value [5, 7]?
Answer: −6.0

Question: What about the “MSQ v2.1 RFR Domain at week 12, difference from placebo” value [5, 7] of the same molecule?
Answer: 10.1

Question: And the “MSQ v2.1 RFR Domain at week 12, mean change from baseline” value [5, 7]?
Answer: 30.5

Question: What about the “Monthly Acute Medication Use Days across 12 weeks, difference from placebo” value [5, 7] of the same molecule?
Answer: −1.3

Question: What about the “Monthly Acute Medication Use Days across 12 weeks, mean change from baseline” value [5, 7] of the same molecule?
Answer: −3.7

Question: What about the “Monthly Headache Days across 12 weeks, difference from placebo” value [5, 7] of the same molecule?
Answer: −1.5

Question: What about the “Monthly Headache Days across 12 weeks, mean change from baseline” value [5, 7] of the same molecule?
Answer: −4.0

Question: What about the “Monthly Migraine Days … difference from placebo” value [5, 7] of the same molecule?
Answer: −1.4

Question: And the “Monthly Migraine Days (MMD) across 12 weeks, mean change from baseline” value [5, 7]?
Answer: −3.9

Question: And the “≥50% MMD Responders across 12 weeks, % Responders” value [5, 7]?
Answer: 59%

Question: And the “≥50% MMD Responders across 12 weeks, difference from placebo” value [5, 7]?
Answer: 30%

Question: And the “AIM-D PDA Domain across 12 weeks, difference from placebo” value [5, 8]?
Answer: −3.3

Question: What about the “AIM-D PDA Domain across 12 weeks, mean change from baseline” value [5, 8] of the same molecule?
Answer: −9.4

Question: What about the “AIM-D PI Domain across 12 weeks, difference from placebo” value [5, 8] of the same molecule?
Answer: −2.5

Question: What about the “AIM-D PI Domain across 12 weeks, mean change from baseline” value [5, 8] of the same molecule?
Answer: −6.5

Question: And the “MSQ v2.1 RFR Domain at week 12, difference from placebo” value [5, 8]?
Answer: 10.8

Question: And the “MSQ v2.1 RFR Domain at week 12, mean change from baseline” value [5, 8]?
Answer: 31.3

Question: What about the “Monthly Acute Medication Use Days across 12 weeks, difference from placebo” value [5, 8] of the same molecule?
Answer: −1.5

Question: What about the “Monthly Acute Medication Use Days across 12 weeks, mean change from baseline” value [5, 8] of the same molecule?
Answer: −3.9

Question: And the “Monthly Headache Days across 12 weeks, difference from placebo” value [5, 8]?
Answer: −1.7

Question: And the “Monthly Headache Days across 12 weeks, mean change from baseline” value [5, 8]?
Answer: −4.2

Question: And the “Monthly Migraine Days … difference from placebo” value [5, 8]?
Answer: −1.7

Question: And the “Monthly Migraine Days (MMD) across 12 weeks, mean change from baseline” value [5, 8]?
Answer: −4.2

Question: What about the “≥50% MMD Responders across 12 weeks, % Responders” value [5, 8] of the same molecule?
Answer: 61%

Question: And the “≥50% MMD Responders across 12 weeks, difference from placebo” value [5, 8]?
Answer: 32%
